{"source": "paper PMC11843629", "about": "“Development of ketobenzothiazole-based peptidomimetic TMPRSS13 inhibitors with low nanomolar potency” (Journal of Enzyme Inhibition and Medicinal Chemistry, 2025)", "key": {"human trypsin": {"tested_on": "human trypsin", "test": "Proteolysis assay (stability) with human trypsin", "assay_type": "in vitro ADME", "settings": "human trypsin (isolated protease), pH 7.4, compound final conc. 10 µM, 37 °C", "experimental": "For the proteolysis assay, human trypsin (#T6424, Sigma–Aldrich, Saint-Louis, Missouri, USA) was resuspended in 1 mM HCl and 20 mM CaCl2, pH 3, and diluted to a final concentration of 0.1 mg/ml in PBS buffer (pH 7.4, 10 mM PO43-, 150 mM NaCl). The control peptide R8 and the compounds of interest were added to a 96-well plate (37 °C) to a final concentration of 10 µM. Trypsin (0.1 µg/ml) was added to the wells for 0, 0.5, 1, 2, 4 and 6 h. The plate was quenched with AcN/EtOH (1:1) 1% formic acid and 0.25 mM N,N-dimethylbenzamide (IS) and centrifuged at 4 °C."}, "WT TMPRSS13": {"molecular_target": "T1, WT TMPRSS13 (Homo sapiens, UniProt Q9BYE2)", "T1 construct": "the full length TMPRSS13 (TMPRSS13-WT); expressed in transfected cells; host or cells: Vero C1008 (Vero E6) cells", "T1 sequence (Q9BYE2 326-567 isoform Q9BYE2-6 limits assumed)": "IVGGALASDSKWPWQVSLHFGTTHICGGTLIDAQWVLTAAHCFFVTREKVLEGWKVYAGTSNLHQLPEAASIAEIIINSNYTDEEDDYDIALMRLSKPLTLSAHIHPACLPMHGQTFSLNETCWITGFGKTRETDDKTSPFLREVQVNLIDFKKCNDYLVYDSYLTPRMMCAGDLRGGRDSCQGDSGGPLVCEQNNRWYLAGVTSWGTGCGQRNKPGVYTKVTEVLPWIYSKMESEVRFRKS", "test": "In cellulo inhibitory activity in TMPRSS13-transfected Vero cells", "assay_type": "cell-based", "settings": "24 h; for IC50: Boc-RVRR-AMC, read-out: IC50 in cellulo TMPRSS13 inhibition; for remaining activity at 10 µM: 10 µM compound, media, relative to DMSO, read-out: residual activity of TMPRSS13", "experimental": "Vero C1008 cells were grown in 12-well plates (200K cells per well) and transfected for 24 h via Lipofectamine 3000 (Life Technologies) with one of the following plasmids: pcDNA3.1 (empty vector, EV), pcDNA3.1-TMPRSS13 WT or pcDNA3.1-TMPRSS13-AFAAS-6His. The cells were then washed 2 times with PBS before HCell-100 medium (Wisent) containing the indicated concentrations of each compound or the control condition (0.01% DMSO) was added. After 24 h of incubation with the compounds, the medium was harvested, and 90 μL was placed in 96-well plate wells with 10 µL of 200 μM Boc-RVRR-AMC. Fluorescence was acquired at room temperature in an FLx800 TBE microplate reader, with excitation at 360 nm and emission at 460 nm. The background was then subtracted by removing the signal recorded with the cells transfected with the empty vector (pcDNA3.1). Proteolytic activity results are represented as a percentage of the DMSO-treated condition. The IC50 was calculated via nonlinear regression of the compound concentration relative to the velocity."}, "in vitro": {"test": "in vitro", "settings": "final conc. 0.2 mM, 37 °C; for half-life at 0.2 mM: male, Sprague-Dawley, rat, pooled rat plasma (K2EDTA), Mean half-life, Plasma", "description": "Adult male Sprague-Dawley rats, weighing between 225 and 300 g (Charles River Laboratories, St. Constant, Canada), were housed in groups of four per double-decker cage on Aspen shavings in a quiet environment. They were maintained under a 12-h light/dark cycle with unrestricted access to food and water. All experimental protocols received approval from the Animal Care Committee of the Université de Sherbrooke, adhering to the Canadian Council on Animal Care guidelines. The procedures also followed the ARRIVE guidelines (Animals in Research: Reporting In Vivo Experiments) and the United States NIH regulations (Ethics approval ID: 2022–3440). To evaluate the stability of compounds in plasma, 6 rats were anaesthetised with 2 L/min oxygen and 5% isoflurane, after which plasma was collected, pooled, and stored frozen until experiments were performed.\nFor evaluating plasma stability, rats were anaesthetised using a flow of 2 L/min of oxygen combined with 5% isoflurane. Blood was obtained via cardiac puncture from the left ventricle using a 20 G ½ needle, collected in pre-chilled Vacutainer K2EDTA tubes (367861), and maintained on wet ice. The blood was then centrifuged at 2000 xG for 15 min at 4 °C. Plasma samples were pooled from six rats, aliquoted, and stored at −80 °C. […] To terminate the reaction, 140 μL of a 1:1 acetonitrile-ethanol solution containing 0.25 mM N,N-dimethylbenzamide (used as an internal standard) was added. The resulting mixture was transferred onto an Impact Protein Precipitation filter plate (Phenomenex, California), with a 96-well UPLC plate positioned below to collect the filtrates. Both plates were centrifuged at 500 × g for 10 min at 4 °C. The filtrates were diluted with 30 μL of distilled water before analysis using an Acquity UPLC-MS system class H (column Acquity UPLC protein BEH C18 (2.1 mm × 50 mm), 1.7 μm particles, 130 Å pore size). The peptide’s half-life was determined from the degradation profile utilising the exponential one-phase decay function in GraphPad Prism 9. Mass spectra obtained at time points close to the calculated half-life were compared with those at 0 min (plasma inactivated prior to compound addition) to identify cleavage fragments."}}, "note": "Read-outs that look alike come from different tables or passages of the source."}
{"smiles": "N=C(N)NCCCCC(=O)N[C@@H](CCC(N)=O)C(=O)N[C@@H](CCc1ccccc1)C(=O)N[C@@H](CCCNC(=N)N)C(=O)c1nc2ccccc2s1", "note": "[Compound N-0430, (H)-RQhFR-Kbt]", "values": [{"measurement": "half-life at 10 µM", "setting": "human trypsin", "value": 29.5, "unit": "h"}, {"measurement": "IC50", "setting": "WT TMPRSS13", "value": 53, "unit": "nM"}, {"measurement": "remaining activity at 10 µM", "setting": "WT TMPRSS13; Vero", "value": 9, "unit": "%"}, {"measurement": "half-life at 0.2 mM", "setting": "in vitro", "value": 40.8, "unit": "h"}]}
{"smiles": "N=C(N)NCCCCC(=O)N[C@@H](CCC(N)=O)C(=O)N[C@@H](Cc1ccccc1)C(=O)N[C@@H](CCCNC(=N)N)C(=O)c1nc2ccccc2s1", "note": "[Compound N-0130, (H)-RQFR-Kbt]", "values": [{"measurement": "half-life at 10 µM", "setting": "human trypsin", "value": 105, "unit": "h"}, {"measurement": "remaining activity at 10 µM", "setting": "WT TMPRSS13", "value": 18.4, "unit": "%"}, {"measurement": "IC50", "setting": "WT TMPRSS13", "value": 192, "unit": "nM"}, {"measurement": "half-life at 0.2 mM", "setting": "in vitro", "value": 79.2, "unit": "h"}, {"measurement": "Mean half-life, Plasma", "setting": "in vitro; rat plasma (male)", "value": 78.5, "unit": "h"}]}
